Assay results from PubChem BioAssay AID1919005 (Molecular Pharmacology Branch, DTP, NCI, 2023).

Tested on: 855422-203-R-J1-PDC complex spheroid growth
Test: Anticancer human tumor 855422-203-R-J1-PDC patient-derived bladder carcinoma cell line growth inhibition [AhR]
Conditions: for IC50: curve of first compound; for viability, T/C: stronger effect = lower value
Description: Multicellular complex tumor spheroid response to aryl hydrocarbon receptor antagonists in combination with a variety of drugs and investigational agents in selected tumor cell lines
The current study was undertaken to assess response to aryl hydrocarbon receptor antagonists in combination with standard-of-care drugs and investigational agents in solid tumor complex spheroid models. Complex spheroids include a stromal component modeled by human endothelial cells (HUVEC) and fibroblasts modeled by human mesenchymal stem cells (MSCs). The concentration ranges selected for each drug and investigational agent were based upon clinically achievable concentrations if the clinical Cmax of the agent was known.
Compounds. The drugs and investigational agents: BAY 2416964 (NSC825713), GNF351 (NSC835774), CH-223191 (NSC835775), CPI-455 (NSC825282), aza-TdCyd (NSC777586), decitabine (NSC127716), belinostat (NSC758774), entinostat (NSC756642), pevonedistat (NSC761192), tazemetostat (NSC777109), talazoparib (NSC765396), olaparib (NSC753686), selinexor (NSC780203), nedisertib (M3814, NSC802822), bortezomib (NSC756655), venetoclax (NSC766270), doxorubicin (NSC123127), elimusertib (BAY189344, NSC800525), ceralasertib (AZD6738, NSC777638), TAK-243 (NSC785004), alisertib (NSC759677), etoposide (NSC141540), topotecan (NSC609699), eribulin (NSC707389), gemcitabine (NSC613327), carboplatin (NSC241240), cisplatin (NSC119875), and SN-38 (NSC673596) were obtained from the National Cancer Institute (NCI) Developmental Therapeutics Program Chemical Repository (32). The FDA-approved anticancer drug set is available from the Developmental Therapeutics Program at https://dtp.cancer.gov/organization/dscb/obtaining/available plates.htm. […] The stock solutions were prepared in dimethyl sulfoxide (DMSO, Sigma-Aldrich, St. Louis, MO, cat. D2650), except for the platinum compounds which were prepared in saline (Quality Biological, Gaithersburg, MD, cat. 114-055-101), at 800-fold the tested concentration and stored at -70 degrees C prior to their use. All drugs and investigational agents were tested over a range starting from a high concentration at or near the clinical Cmax and decreasing in half-log increments. If the clinical Cmax for an agent had not been determined, the highest concentration tested was 10 microM (Table 1).
Cell Culture. All cells were maintained in an incubator at 37 degrees C and 5% CO2 with 95% humidity. The PDC lines were cultured according to standard operating procedures established by the NCI PDMR (https://pdmr.cancer.gov). Briefly, all PDCs were thawed and cultured in Matrigel-coated flasks prepared with a working solution of 1X Ham's F-12 nutrient mix, without supplementation (Invitrogen, Waltham, MA, cat. 11765054), 100 U/mL penicillin-streptomycin (Invitrogen, cat. 15140122), and 2.5% Matrigel (Corning Inc., Corning, NY, cat. 354248) for the first three passages. All PDCs were cultured in complete DMEM/F-12 media containing advanced DMEM/F-12 (Invitrogen, cat. 12634028), 4.9% defined fetal bovine serum, heat inactivated (HyClone Laboratories Inc., Logan, UT, cat. SH30070.03HI), 389 ng/mL hydrocortisone (Sigma-Aldrich, cat. H4001), 9.7 ng/mL human EGF recombinant protein (Invitrogen, cat. PHG0313), 23.4 microg/mL adenine (Sigma-Aldrich, cat. A2786), 97.3 U/mL penicillin-streptomycin (Invitrogen, cat. 15140122), 1.9 mM L-glutamine (Invitrogen, cat. 25030081), and 9.7 microM Y-27632 dihydrochloride (Tocris Bioscience, Bristol, United Kingdom, cat. 1254). The PDCs were cultured in complete DMEM/F12 media without 10 microM Y-27632 dihydrochloride for at least two passages prior to the screen. The established cell lines NCI-H1341 and […] were cultured in DMEM/F-12, HEPES (Invitrogen, cat. 11330032), 5% defined fetal bovine serum (HyClone Laboratories Inc., cat. SH30070.03), ITS premix universal culture supplement [insulin (5 microg/mL), transferrin (5 microg/mL), and selenious acid (5 ng/mL)] […]

[1] = second compound 0.1 µM, first compound 0.0316 µM
[2] = second compound 0.1 µM, first compound 0.1 µM
[3] = second compound 0.1 µM, first compound 0.316 µM
[4] = second compound 0.1 µM, first compound 1 µM
[5] = second compound 0.1 µM, first compound 3.16 µM
[6] = second compound 0.1 µM, first compound 10 µM
[7] = second compound 0.316 µM, first compound 0.0316 µM
[8] = second compound 0.316 µM, first compound 0.1 µM
[9] = second compound 0.316 µM, first compound 0.316 µM
[10] = second compound 0.316 µM, first compound 1 µM
[11] = second compound 0.316 µM, first compound 3.16 µM
[12] = second compound 0.316 µM, first compound 10 µM
[13] = second compound 1 µM, first compound 0.0316 µM
[14] = second compound 1 µM, first compound 0.1 µM
[15] = second compound 1 µM, first compound 0.316 µM
[16] = second compound 1 µM, first compound 1 µM
[17] = second compound 1 µM, first compound 3.16 µM
[18] = second compound 1 µM, first compound 10 µM
[19] = second compound 3.16 µM, first compound 0.0316 µM
[20] = second compound 3.16 µM, first compound 0.1 µM
[21] = second compound 3.16 µM, first compound 0.316 µM
[22] = second compound 3.16 µM, first compound 1 µM
[23] = second compound 3.16 µM, first compound 3.16 µM
[24] = second compound 3.16 µM, first compound 10 µM
[25] = second compound 10 µM, first compound 0.0316 µM
[26] = second compound 10 µM, first compound 0.1 µM
[27] = second compound 10 µM, first compound 0.316 µM
[28] = second compound 10 µM, first compound 1 µM
[29] = second compound 10 µM, first compound 3.16 µM
[30] = second compound 10 µM, first compound 10 µM
[31] = second compound 0.1 µM, first compound 0.000316 µM
[32] = second compound 0.1 µM, first compound 0.001 µM
[33] = second compound 0.1 µM, first compound 0.00316 µM
[34] = second compound 0.1 µM, first compound 0.01 µM
[35] = second compound 0.316 µM, first compound 0.000316 µM
[36] = second compound 0.316 µM, first compound 0.001 µM
[37] = second compound 0.316 µM, first compound 0.00316 µM
[38] = second compound 0.316 µM, first compound 0.01 µM
[39] = second compound 1 µM, first compound 0.000316 µM
[40] = second compound 1 µM, first compound 0.001 µM
[41] = second compound 1 µM, first compound 0.00316 µM
[42] = second compound 1 µM, first compound 0.01 µM
[43] = second compound 3.16 µM, first compound 0.000316 µM
[44] = second compound 3.16 µM, first compound 0.001 µM
[45] = second compound 3.16 µM, first compound 0.00316 µM
[46] = second compound 3.16 µM, first compound 0.01 µM
[47] = second compound 10 µM, first compound 0.000316 µM
[48] = second compound 10 µM, first compound 0.001 µM
[49] = second compound 10 µM, first compound 0.00316 µM
[50] = second compound 10 µM, first compound 0.01 µM
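Also: spheroids exposed to agents for seven days before readout.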
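For viability, T/C in this document: percent of DMSO vehicle control luminescence viability.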

SMILES | IC50 (second compound 0.1 µM) | IC50 (second compound 0.316 µM) | IC50 (second compound 1 µM) | IC50 (second compound 3.16 µM) | IC50 (second compound 10 µM) | viability, T/C [1] | viability, T/C [2] | viability, T/C [3] | viability, T/C [4] | viability, T/C [5] | viability, T/C [6] | viability, T/C [7] | viability, T/C [8] | viability, T/C [9] | viability, T/C [13] | viability, T/C [14] | viability, T/C [19] | viability, T/C [20] | viability, T/C [25] | viability, T/C [26] | other results
O=C(C=Cc1cccc(S(=O)(=O)Nc2ccccc2)c1)NO + Cc1cncc(-c2nc(NCCc3c[nH]c4ccccc34)c3ncn(C(C)C)c3n2)c1 | 1.48 µM | 1.39 µM | 1.14 µM | 0.494 µM | < 0.0316 µM | 81.7% | 86.4% | 85.2% | 62.5% | 23.9% | 0.91% | 84.8% | 82.9% | 81.5% | 82.6% | 84.4% | 73.5% | 82.4% | 29.9% | 36.2% | viability, T/C [10]: 59.9%; viability, T/C [11]: 23.5%; viability, T/C [12]: 0.69%; viability, T/C [15]: 72%; viability, T/C [16]: 53.3%; viability, T/C [17]: 23.9%; viability, T/C [18]: 0.75%; viability, T/C [21]: 66%; viability, T/C [22]: 23.5%; viability, T/C [23]: 12.2%; viability, T/C [24]: 0.58%; viability, T/C [27]: 8.93%; viability, T/C [28]: 3.43%; viability, T/C [29]: 1.25%; viability, T/C [30]: 0.31%
CC1COCCN1c1cc(C2(S(C)(=N)=O)CC2)nc(-c2ccnc3[nH]ccc23)n1 (stereo not given) + Cc1ccccc1N=Nc1ccc(NC(=O)c2ccnn2C)c(C)c1 | > 10 µM | > 10 µM | > 10 µM | > 10 µM | 7.86 µM | 95.5% | 95.4% | 97.4% | 99.4% | 110% | 54.9% | 105% | 99.2% | 104% | 102% | 98.4% | 91% | 91.4% | 83.5% | 79% | viability, T/C [10]: 101%; viability, T/C [11]: 121%; viability, T/C [12]: 55.4%; viability, T/C [15]: 95%; viability, T/C [16]: 106%; viability, T/C [17]: 125%; viability, T/C [18]: 60%; viability, T/C [21]: 92.9%; viability, T/C [22]: 102%; viability, T/C [23]: 109%; viability, T/C [24]: 50.8%; viability, T/C [27]: 83.6%; viability, T/C [28]: 93.3%; viability, T/C [29]: 82%; viability, T/C [30]: 41.4%
CC[C@@]1(O)C(=O)OCc2c1cc1n(c2=O)Cc2cc3c(CN(C)C)c(O)ccc3nc2-1 + Cc1cncc(-c2nc(NCCc3c[nH]c4ccccc34)c3ncn(C(C)C)c3n2)c1 | 0.0378 µM | 0.0337 µM | 0.0257 µM | 0.0181 µM | < 0.000316 µM | 56.8% | 13.1% |  |  |  |  | 52.2% | 11.6% |  | 43.6% | 12% | 33% | 11.7% | 3.7% | 1.73% | viability, T/C [31]: 95.4%; viability, T/C [32]: 85.9%; viability, T/C [33]: 103%; viability, T/C [34]: 91.5%; viability, T/C [35]: 89.6%; viability, T/C [36]: 87.1%; viability, T/C [37]: 93.6%; viability, T/C [38]: 89.6%; viability, T/C [39]: 91.4%; viability, T/C [40]: 90.6%; viability, T/C [41]: 80.8%; viability, T/C [42]: 78.1%; viability, T/C [43]: 77.3%; viability, T/C [44]: 83.7%; viability, T/C [45]: 74.3%; viability, T/C [46]: 68.5%; viability, T/C [47]: 13.4%; viability, T/C [48]: 8.89%; viability, T/C [49]: 4.65%; viability, T/C [50]: 6.18%
Cn1ncnc1C1c2n[nH]c(=O)c3cc(F)cc(c23)NC1c1ccc(F)cc1 (stereo not given) + CC(CO)NC(=O)c1cc(-c2ccc(Cl)cc2)nn(-c2cnn(C)c2)c1=O | > 0.1 µM | > 0.1 µM | > 0.1 µM | > 0.1 µM | > 0.1 µM | 105% | 84.9% |  |  |  |  | 100% | 89.3% |  | 99% | 107% | 105% | 110% | 106% | 94% | viability, T/C [31]: 93.4%; viability, T/C [32]: 96.2%; viability, T/C [33]: 99.3%; viability, T/C [34]: 92.4%; viability, T/C [35]: 96.4%; viability, T/C [36]: 104%; viability, T/C [37]: 98.6%; viability, T/C [38]: 107%; viability, T/C [39]: 109%; viability, T/C [40]: 105%; viability, T/C [41]: 96.2%; viability, T/C [42]: 109%; viability, T/C [43]: 101%; viability, T/C [44]: 107%; viability, T/C [45]: 102%; viability, T/C [46]: 103%; viability, T/C [47]: 105%; viability, T/C [48]: 102%; viability, T/C [49]: 95.4%; viability, T/C [50]: 103%
